For the test, the system named is BDF1 mice, P388 leukemia ip, median survival T/C. In words: NCI In Vivo Anticancer Drug Screen. Data for tumor model P388 Leukemia (intraperitoneal) in B6D2F1 (BDF1) mice. Conditions: endpoint: median survival time, higher = longer survival. In short, it runs like this: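 Read-out is survival of treated animals expressed relative to the vehicle group, as a T/C ratio.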

Each structure is given as a SMILES string. Inconclusive results and toxic doses are left out.

On to `Cc1nn(C)c(N)c1C#N`, for which the T/C (dose: 12.5 mg/kg/injection, schedule: Q01DX009 (ip), vehicle: saline) was 87 % of control; the T/C (dose: 25.0 mg/kg/injection, schedule: Q01DX009 (ip), vehicle: saline) was 94 % of control; the T/C (dose: 25.0 mg/kg/injection, schedule: Q04DX003 (ip), vehicle: saline) is 103 % of control; the T/C (dose: 50.0 mg/kg/injection, schedule: Q01DX009 (ip), vehicle: saline) is 87 % of control; the T/C (dose: 50.0 mg/kg/injection, schedule: Q04DX003 (ip), vehicle: saline) is 97 % of control; the T/C (dose: 100.0 mg/kg/injection, schedule: Q01DX009 (ip), vehicle: saline) is 101 % of control. Further, the T/C (dose: 100.0 mg/kg/injection, schedule: Q04DX003 (ip), vehicle: saline) is 92 % of control; the T/C (dose: 200.0 mg/kg/injection, schedule: Q01DX009 (ip), vehicle: saline) is 100 % of control; the T/C (dose: 200.0 mg/kg/injection, schedule: Q04DX003 (ip), vehicle: saline) is 97 % of control; the T/C (dose: 400.0 mg/kg/injection, schedule: Q01DX009 (ip), vehicle: saline) is 92 % of control; the T/C (dose: 400.0 mg/kg/injection, schedule: Q04DX003 (ip), vehicle: saline) is 97 % of control.

With `COc1ccc2c(c[n+](C)c3c4cc5c(cc4ccc23)OCO5)c1OC`, the T/C was 90 % of control (dose: 5.0 mg/kg/injection, schedule: Q01DX010 (ip), vehicle: saline) and 100 % of control (dose: 10.0 mg/kg/injection, schedule: Q01DX010 (ip), vehicle: saline).

For `CCC(C)(C)c1ccc(Oc2ccccc2)c(N)c1`, the T/C (dose: 100.0 mg/kg/injection, schedule: Q04DX003 (ip), vehicle: other) was 109 % of control and the T/C (dose: 200.0 mg/kg/injection, schedule: Q04DX003 (ip), vehicle: other) was 113 % of control.

Regarding `CN=C(NC)c1ccc(NC(=O)/C=C\c2ccc(C(=O)Nc3ccc(C(=NC)NC)cc3)cc2)cc1`, the T/C is, setting by setting: (dose: 0.15 mg/kg/injection, schedule: Q01DX009 (ip), vehicle: saline with Tween-80) 116 % of control; (dose: 0.5 mg/kg/injection, schedule: Q01DX009 (ip), vehicle: saline with Tween-80) 155 % of control; (dose: 1.32 mg/kg/injection, schedule: Q04DX003 (ip), vehicle: saline with Tween-80) 108 % of control; (dose: 1.5 mg/kg/injection, schedule: Q01DX009 (ip), vehicle: saline with Tween-80) 161 % of control; (dose: 2.0 mg/kg/injection, schedule: Q04DX003 (ip), vehicle: saline with Tween-80) 112 % of control; (dose: 4.4 mg/kg/injection, schedule: Q04DX003 (ip), vehicle: saline with Tween-80) 154 % of control. Also, the T/C (dose: 4.5 mg/kg/injection, schedule: Q04DX003 (ip), vehicle: saline with Tween-80) was 162 % of control; the T/C (dose: 6.6 mg/kg/injection, schedule: Q04DX003 (ip), vehicle: saline with Tween-80) was 168 % of control; the T/C (dose: 10.0 mg/kg/injection, schedule: Q04DX003 (ip), vehicle: saline with Tween-80) was 154 % of control; the T/C (dose: 12.5 mg/kg/injection, schedule: Q04DX003 (ip), vehicle: saline with Tween-80) is 177 % of control; the T/C (dose: 15.0 mg/kg/injection, schedule: Q04DX003 (ip), vehicle: saline with Tween-80) is 177 % of control; the T/C (dose: 25.0 mg/kg/injection, schedule: Q04DX003 (ip), vehicle: saline with Tween-80) was 100 % of control. Moreover, the T/C (dose: 50.0 mg/kg/injection, schedule: Q04DX003 (ip), vehicle: saline with Tween-80) was 86 % of control.

Consider `NC1=Nc2cccc3cccc(c23)N1`, for which the T/C (dose: 12.5 mg/kg/injection, schedule: Q01DX009 (ip), vehicle: saline with Tween-80) was 92 % of control; the T/C (dose: 12.5 mg/kg/injection, schedule: Q04DX003 (ip), vehicle: Klucel (hydroxypropylcellulose) (HPC)) was 109 % of control; the T/C (dose: 25.0 mg/kg/injection, schedule: Q01DX009 (ip), vehicle: saline with Tween-80) is 100 % of control; the T/C (dose: 25.0 mg/kg/injection, schedule: Q04DX003 (ip), vehicle: Klucel (hydroxypropylcellulose) (HPC)) was 100 % of control; the T/C (dose: 50.0 mg/kg/injection, schedule: Q01DX009 (ip), vehicle: saline with Tween-80) is 100 % of control; the T/C (dose: 50.0 mg/kg/injection, schedule: Q04DX003 (ip), vehicle: Klucel (hydroxypropylcellulose) (HPC)) is 109 % of control.

Take `O=[N+]([O-])c1ccc(/C=C/C=C/c2ccc(Cl)cc2Cl)cc1`: the T/C was 104 % of control (dose: 50.0 mg/kg/injection, schedule: Q01DX009 (ip), vehicle: Klucel (hydroxypropylcellulose) (HPC)); 113 % of control (dose: 100.0 mg/kg/injection, schedule: Q01DX009 (ip), vehicle: Klucel (hydroxypropylcellulose) (HPC)); 104 % of control (dose: 100.0 mg/kg/injection, schedule: Q04DX003 (ip), vehicle: Klucel (hydroxypropylcellulose) (HPC)); 90 % of control (dose: 200.0 mg/kg/injection, schedule: Q01DX009 (ip), vehicle: Klucel (hydroxypropylcellulose) (HPC)); 95 % of control (dose: 200.0 mg/kg/injection, schedule: Q04DX003 (ip), vehicle: Klucel (hydroxypropylcellulose) (HPC)); 91 % of control (dose: 400.0 mg/kg/injection, schedule: Q04DX003 (ip), vehicle: Klucel (hydroxypropylcellulose) (HPC)).

The values above are taken from PubChem BioAssay AID328 (DTP/NCI, 2004).
